Among the data in patent publication US9624214B2, “Amino-substituted imidazo[1,2-a]pyridinecarboxamides and their use” (BAYER PHARMA AKTIENGESELLSCHAFT, priority 2012, dated 2017) are MEC values, retold here.

The experiment has as its target T1, recombinant guanylate cyclase reporter cell line (Rattus norvegicus, UniProt P19686+P20595).
T1 construct: expressed in transfected cells
T1 sequence (P20595 1-619): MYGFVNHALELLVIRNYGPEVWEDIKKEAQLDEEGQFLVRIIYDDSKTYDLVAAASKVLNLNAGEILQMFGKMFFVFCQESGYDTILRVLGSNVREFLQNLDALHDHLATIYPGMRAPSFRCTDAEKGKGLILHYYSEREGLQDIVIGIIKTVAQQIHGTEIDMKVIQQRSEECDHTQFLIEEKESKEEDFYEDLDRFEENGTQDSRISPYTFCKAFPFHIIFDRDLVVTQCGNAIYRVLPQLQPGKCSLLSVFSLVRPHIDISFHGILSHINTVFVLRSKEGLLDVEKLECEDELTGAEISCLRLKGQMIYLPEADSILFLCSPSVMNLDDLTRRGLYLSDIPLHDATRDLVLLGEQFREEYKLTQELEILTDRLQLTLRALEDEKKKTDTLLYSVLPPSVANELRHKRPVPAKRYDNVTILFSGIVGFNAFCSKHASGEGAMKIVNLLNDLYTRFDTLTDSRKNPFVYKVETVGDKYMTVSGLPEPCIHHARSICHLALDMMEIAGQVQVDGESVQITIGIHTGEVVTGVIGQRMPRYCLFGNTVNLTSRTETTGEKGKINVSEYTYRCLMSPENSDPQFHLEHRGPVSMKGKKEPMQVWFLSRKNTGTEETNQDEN
T1 sequence (P19686 1-690): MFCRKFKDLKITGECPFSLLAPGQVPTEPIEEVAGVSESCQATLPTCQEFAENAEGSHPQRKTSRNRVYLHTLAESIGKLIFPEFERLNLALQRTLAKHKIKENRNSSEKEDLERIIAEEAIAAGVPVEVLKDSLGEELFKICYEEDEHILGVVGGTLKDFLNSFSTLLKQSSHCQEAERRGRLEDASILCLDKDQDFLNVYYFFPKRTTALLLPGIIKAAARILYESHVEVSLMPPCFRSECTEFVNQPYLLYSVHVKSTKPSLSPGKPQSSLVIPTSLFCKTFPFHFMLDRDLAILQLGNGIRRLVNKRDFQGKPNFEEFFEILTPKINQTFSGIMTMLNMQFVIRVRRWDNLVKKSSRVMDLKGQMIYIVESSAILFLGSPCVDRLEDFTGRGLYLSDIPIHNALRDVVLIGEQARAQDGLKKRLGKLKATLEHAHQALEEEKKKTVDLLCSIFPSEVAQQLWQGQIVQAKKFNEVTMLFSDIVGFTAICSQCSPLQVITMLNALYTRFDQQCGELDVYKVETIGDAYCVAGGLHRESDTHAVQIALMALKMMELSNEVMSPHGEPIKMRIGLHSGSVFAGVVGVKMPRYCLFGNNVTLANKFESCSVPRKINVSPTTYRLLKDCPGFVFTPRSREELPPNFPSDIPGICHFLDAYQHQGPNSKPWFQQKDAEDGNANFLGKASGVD
The experiment in a line: B-2. Action on recombinant guanylate cyclase reporter cell line. The experiment is classed as cell-based. As to conditions: MEC = minimal effective concentration; in some cases mean values from individual determinations. On the procedure:
B-2. Action on Recombinant Guanylate Cyclase Reporter Cell Line
The cellular action of the compounds according to the invention is determined on a recombinant guanylate cyclase reporter cell line, as described in F. Wunder et al., Anal. Biochem. 339, 104-112 (2005).
Representative MEC values (MEC=minimal effective concentration) for the compounds according to the invention are shown in the following table (in some cases as mean values obtained from individual determinations): […]

Structures are written as SMILES.

For `Cc1cc(OCc2c(F)cccc2F)c2nc(C)c(C(=O)NC3CNc4ccccc4C3)n2c1` (racemic) [Example 76, rac-8-[(2,6-difluorobenzyl)oxy]-2,6-dimethyl-N-(1,2,3,4-tetrahydroquinolin-3-yl)imidazo[1,2-a]-pyridine-3-carboxamide], the MEC was found to be 0.30 µM.

Regarding `Cc1cc(OCc2c(F)cccc2F)c2nc(C)c(C(=O)NC(C)C3CCN(C)CC3)n2c1` (racemic) [Example 77, rac-8-[(2,6-difluorobenzyl)oxy]-2,6-dimethyl-N-[1-(1-methylpiperidin-4-yl)ethyl]imidazo[1,2-a]-pyridine-3-carboxamide], the MEC was 1.00 µM.

In the case of `Cc1nc2c(OCc3c(F)cccc3F)cc(Cl)cn2c1C(=O)NC(C)C1CCN(C)CC1` (racemic) [Example 78, rac-6-chloro-8-[(2,6-difluorobenzyl)oxy]-2-methyl-N-[1-(1-methylpiperidin-4-yl)ethyl]-imidazo[1,2-a]pyridine-3-carboxamide], the MEC amounted to 1.00 µM.

Take `Cc1nc2c(OCc3c(F)cccc3F)cccn2c1C(=O)NCC1NCCc2ccccc21` (racemic) [Example 80, rac-8-[(2,6-difluorobenzyl)oxy]-2-methyl-N-(1,2,3,4-tetrahydroisoquinolin-1-ylmethyl)-imidazo[1,2-a]pyridine-3-carboxamide]: the MEC stood at 1.00 µM.

In the case of `Cc1nc2c(OCc3c(F)cccc3F)cccn2c1C(=O)NC1CCCN(C)C1` (racemic) [Example 84, rac-8-[(2,6-difluorobenzyl)oxy]-2-methyl-N-(1-methylpiperidin-3-yl)imidazo[1,2-a]-pyridine-3-carboxamide], the MEC was found to be 1.00 µM.

Regarding `Cc1nc2c(OCc3c(F)cccc3F)cccn2c1C(=O)NC1CCN(Cc2ccccc2)C1` (racemic) [Example 85, rac-N-(1-benzylpyrrolidin-3-yl)-8-[(2,6-difluoro-benzyl)oxy]-2-methylimidazo[1,2-a]-pyridine-3-carboxamide], the MEC was 1.00 µM.

With `Cc1nc2c(OCc3c(F)cccc3F)cc(Cl)cn2c1C(=O)NCC1CCCCN1` (racemic) [Example 118, rac-6-chloro-8-[(2,6-difluorobenzyl)oxy]-2-methyl-N-(piperidin-2-ylmethyl)imidazo[1,2-a]-pyridine-3-carboxamide], the MEC is 1.00 µM.

Regarding `Cc1nc2c(OCc3c(F)cccc3F)cccn2c1C(=O)NC12CNCCC1C2` (racemic) [Example 125, rac-N-(3-Azabicyclo[4.1.0]hept-1-yl)-8-[(2,6-difluorobenzyl)oxy]-2-methylimidazo[1,2-a]-pyridine-3-carboxamide], the MEC is 1.00 µM.

Consider `Cc1nc2c(OCc3c(F)cccc3F)cccn2c1C(=O)NCC(C)N1CCOCC1` (racemic) [Example 132, rac-8-[(2,6-difluorobenzyl)oxy]-2-methyl-N-[2-(morpholin-4-yl)propyl]imidazo[1,2-a]pyridine-3-carboxamide], for which the MEC came to 1.00 µM.

For `Cc1nc2c(OCc3c(F)cccc3F)cccn2c1C(=O)NC(CN1CCOCC1)c1ccccc1` (racemic) [Example 134, rac-8-[(2,6-difluorobenzyl)oxy]-2-methyl-N-[2-(morpholin-4-yl)-1-phenylethyl]imidazo[1,2-a] - pyridine-3-carboxamide], the MEC is 3.00 µM.

On to `Cc1cc(OCc2c(F)cccc2F)c2nc(C)c(C(=O)NCCNC(C)C)n2c1` (racemic) [Example 135, rac-8-[(2,6-difluorobenzyl)oxy]-N-[2-(isopropylamino)ethyl]-2,6-dimethylimidazo[1,2-a]pyridine-3-carboxamide], for which the MEC is 1.00 µM.

On to `Cc1cc(OCc2c(F)cccc2F)c2nc(C)c(C(=O)NCC(C)N3CCOCC3)n2c1` (racemic) [Example 138, rac-8-[(2,6-difluorobenzyl)oxy]-2,6-dimethyl-N-[2-(morpholin-4-yl)propyl]imidazo[1,2-a]-pyridine-3-carboxamide], for which the MEC amounted to 0.30 µM.

As to `Cc1nc2c(OCc3c(F)cccc3F)cccn2c1C(=O)NCC(C(C)C)N(C)C` (racemic) [Example 142, rac-8-[(2,6-difluorobenzyl)oxy]-N-[2-(dimethyl-amino)-3-methylbutyl]-2-methylimidazo[1,2-a]-pyridine-3-carboxamide], the MEC was 1.00 µM.

For `Cc1nc2c(OCc3c(F)cccc3F)cc(Cl)cn2c1C(=O)NCC(N)CC(F)(F)F` (racemic) [Example 147, rac-N-(2-amino-4,4,4-trifluorobutyl)-6-chloro-8-[(2,6-difluorobenzyl)oxy]-2-methylimidazo[1,2-a]pyridine-3-carboxamide], the MEC came to 0.30 µM.

As to `CCC(C)(N)CNC(=O)c1c(C)nc2c(OCc3c(F)cccc3F)cc(Cl)cn12` (racemic) [Example 157, rac-N-(2-amino-2-methylbutyl)-6-chloro-8-[(2,6-difluorobenzyl)oxy]-2-methylimidazo[1,2-a]-pyridine-3-carboxamide], the MEC turned out to be 0.30 µM.

Consider `COCC(C)(N)CNC(=O)c1c(C)nc2c(OCc3c(F)cccc3F)cc(Cl)cn12` (racemic) [Example 159, rac-N-(2-amino-3-methoxy-2-methylpropyl)-6-chloro-8-[(2,6-difluorobenzyl)oxy]-2-methylimidazo[1,2-a]pyridine-3-carboxamide], for which the MEC was 0.30 µM.

As for `COCC(C)(N)CNC(=O)c1c(C)nc2c(OCc3c(F)cccc3F)cc(C)cn12` (racemic) [Example 166, rac-N-(2-amino-3-methoxy-2-methylpropyl)-8-[(2,6-difluorobenzyl)oxy]-2,6-dimethylimidazo[1,2-a]pyridine-3-carboxamide], the MEC came to 0.30 µM.

For `Cc1nc2c(OCc3c(F)cccc3F)cccn2c1C(=O)NCC(C)(N)CC(C)C` (racemic) [Example 202, rac-N-(2-Amino-2,4-dimethylpentyl)-8-[(2,6-difluorobenzyl)oxy]-2-methylimidazo[1,2-a]pyridine-3-carboxamide], the MEC amounted to 0.10 µM.

`Cc1nc2c(OCc3c(F)cccc3F)cccn2c1C(=O)NCC(N)COC(C)C` (racemic) [Example 205, rac-N-(2-Amino-3-isopropoxypropyl)-8-[(2,6-difluorobenzyl)oxy]-2-methylimidazo[1,2-a]-pyridine-3-carboxamide]: the MEC was found to be 0.30 µM.

For the molecule `Cc1cc(OCc2c(F)cccc2F)c2nc(C)c(C(=O)NCC(N)COC(C)C)n2c1` (racemic) [Example 206, rac-N-(2-Amino-3-isopropoxypropyl)-8-[(2,6-difluorobenzyl)oxy]-2,6-dimethylimidazo[1,2-a]-pyridine-3-carboxamide], the MEC turned out to be 0.30 µM.

On to `Cc1nc2c(OCc3c(F)cccc3F)cccn2c1C(=O)NCC(N)C(F)(F)F` (racemic) [Example 207, rac-N-(2-Amino-3,3,3-trifluoropropyl)-8-[(2,6-difluorobenzyl)oxy]-2-methylimidazo[1,2-a]-pyridine-3-carboxamide], for which the MEC came out at 1.00 µM.

Turning to `COCC(C)(N)CNC(=O)c1c(C)nc2c(OCc3c(F)cccc3F)cccn12` (racemic) [Example 213, rac-N-(2-Amino-3-methoxy-2-methylpropyl)-8-[(2,6-difluorobenzyl)oxy]-2-methylimidazo[1,2-a]-pyridine-3-carboxamide], the MEC was found to be 1.00 µM.

Turning to `Cc1nc2c(OCc3c(F)cccc3F)cc(Cl)cn2c1C(=O)NCC(N)COC(C)C` (racemic) [Example 217, rac-N-(2-Amino-3-isopropoxypropyl)-6-chloro-8-[(2,6-difluorobenzyl)oxy]-2-methylimidazo[1,2-a]pyridine-3-carboxamide], the MEC was 1.00 µM.

In the case of `Cc1cc(OCc2c(F)cccc2F)c2nc(C)c(C(=O)NCC(C)(N)CC(C)C)n2c1` (racemic) [Example 218, rac-N-(2-Amino-2,4-dimethylpentyl)-8-[(2,6-difluorobenzyl)oxy]-2,6-dimethylimidazo[1,2-a]-pyridine-3-carboxamide], the MEC was determined as 0.10 µM.
